Assay results taken from patent US11629143B2, “HipK4 inhibitors and uses thereof” (Vibliome Therapeutics, LLC, priority 2020, dated 2023).

Columns and labels:
Experiment in all cases: Kinase panel (mobility shift)
Format in all cases: biochemical
[1] = target: BRK (Homo sapiens, UniProt Q13882)
Procedure: (§1) The disclosed compounds were tested for activity against a panel of 299 kinases. The target enzyme was incubated with fluorescently labeled substrate and test compounds in a standardized reaction mixture in 384 well plates. Upon termination of the reaction, samples were introduced onto microfluidic chips. The samples migrated through channels in the chips and product and substrate were separated based on the difference in their charge (electrophoretic mobility shift). Enzyme activity was measured by direct comparison of the fluorescence in the product and substrate peaks. […] In the tables A=95% or greater at 5 um, B=90%-94% at 5 um, and C=80%-89% at 5 um. [note to draft: we included category D for 50-79 and category E is less than 50%. Feel free to remove if not needed)

[2] = target: EPH-A4 (Homo sapiens, UniProt P54764)
Procedure: as §1

[3] = target: EPH-A5 (Homo sapiens, UniProt P54756); conditions: at 5 um
Procedure: as §1

[4] = target: T1, HIPK4 (Homo sapiens, UniProt Q8NE63)
T1 sequence (Q8NE63 1-616): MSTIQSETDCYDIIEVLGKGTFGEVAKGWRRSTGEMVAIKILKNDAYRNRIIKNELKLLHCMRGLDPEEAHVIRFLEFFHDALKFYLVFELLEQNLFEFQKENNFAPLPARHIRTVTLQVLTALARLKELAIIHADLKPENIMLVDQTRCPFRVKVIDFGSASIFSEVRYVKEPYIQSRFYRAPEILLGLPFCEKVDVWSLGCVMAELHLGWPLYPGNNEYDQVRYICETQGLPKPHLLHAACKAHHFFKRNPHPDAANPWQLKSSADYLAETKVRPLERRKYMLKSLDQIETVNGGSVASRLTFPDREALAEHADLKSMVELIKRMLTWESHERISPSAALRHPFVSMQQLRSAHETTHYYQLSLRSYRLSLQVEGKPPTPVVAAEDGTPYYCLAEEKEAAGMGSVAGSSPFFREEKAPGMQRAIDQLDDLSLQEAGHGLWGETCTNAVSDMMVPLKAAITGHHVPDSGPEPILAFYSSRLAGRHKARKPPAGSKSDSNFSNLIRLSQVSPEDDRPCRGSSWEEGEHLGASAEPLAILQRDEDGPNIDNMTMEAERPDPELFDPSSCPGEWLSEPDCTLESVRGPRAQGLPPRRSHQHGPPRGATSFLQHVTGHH
Procedure: as §1

[5] = target: KIT (Homo sapiens, UniProt P10721)
Procedure: as §1

[6] = target: LCK (Homo sapiens, UniProt P06239)
Procedure: as §1

[7] = target: T2, MUSK (Homo sapiens, UniProt O15146)
T2 sequence (O15146 24-869): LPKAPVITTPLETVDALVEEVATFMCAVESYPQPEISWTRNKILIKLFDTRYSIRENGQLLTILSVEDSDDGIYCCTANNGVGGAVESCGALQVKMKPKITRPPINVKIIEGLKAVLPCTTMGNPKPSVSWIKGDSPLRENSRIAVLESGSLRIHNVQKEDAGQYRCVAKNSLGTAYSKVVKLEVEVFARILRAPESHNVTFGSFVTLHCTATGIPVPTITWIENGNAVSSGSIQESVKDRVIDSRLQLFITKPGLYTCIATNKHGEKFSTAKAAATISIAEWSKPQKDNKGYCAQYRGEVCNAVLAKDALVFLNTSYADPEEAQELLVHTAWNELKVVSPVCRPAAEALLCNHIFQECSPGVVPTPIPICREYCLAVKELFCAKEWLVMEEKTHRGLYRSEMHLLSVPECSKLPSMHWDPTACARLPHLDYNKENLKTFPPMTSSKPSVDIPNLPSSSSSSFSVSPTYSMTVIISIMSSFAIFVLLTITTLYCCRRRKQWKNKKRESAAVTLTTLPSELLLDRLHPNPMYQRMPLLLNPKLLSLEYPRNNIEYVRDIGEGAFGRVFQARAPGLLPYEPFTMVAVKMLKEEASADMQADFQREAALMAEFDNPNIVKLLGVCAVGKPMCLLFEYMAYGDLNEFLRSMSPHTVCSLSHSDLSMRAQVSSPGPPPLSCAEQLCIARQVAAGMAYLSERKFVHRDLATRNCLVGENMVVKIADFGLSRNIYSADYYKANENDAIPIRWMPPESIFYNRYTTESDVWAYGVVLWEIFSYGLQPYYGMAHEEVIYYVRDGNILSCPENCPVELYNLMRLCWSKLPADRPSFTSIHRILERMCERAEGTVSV
Procedure: as §1

[8] = target: PDGFR-a (Homo sapiens, UniProt P16234)
Procedure: as §1

[9] = target: TRKA (Homo sapiens, UniProt P04629)
Procedure: as §1

Sequence of TRKA (P04629 33-796, species assumed): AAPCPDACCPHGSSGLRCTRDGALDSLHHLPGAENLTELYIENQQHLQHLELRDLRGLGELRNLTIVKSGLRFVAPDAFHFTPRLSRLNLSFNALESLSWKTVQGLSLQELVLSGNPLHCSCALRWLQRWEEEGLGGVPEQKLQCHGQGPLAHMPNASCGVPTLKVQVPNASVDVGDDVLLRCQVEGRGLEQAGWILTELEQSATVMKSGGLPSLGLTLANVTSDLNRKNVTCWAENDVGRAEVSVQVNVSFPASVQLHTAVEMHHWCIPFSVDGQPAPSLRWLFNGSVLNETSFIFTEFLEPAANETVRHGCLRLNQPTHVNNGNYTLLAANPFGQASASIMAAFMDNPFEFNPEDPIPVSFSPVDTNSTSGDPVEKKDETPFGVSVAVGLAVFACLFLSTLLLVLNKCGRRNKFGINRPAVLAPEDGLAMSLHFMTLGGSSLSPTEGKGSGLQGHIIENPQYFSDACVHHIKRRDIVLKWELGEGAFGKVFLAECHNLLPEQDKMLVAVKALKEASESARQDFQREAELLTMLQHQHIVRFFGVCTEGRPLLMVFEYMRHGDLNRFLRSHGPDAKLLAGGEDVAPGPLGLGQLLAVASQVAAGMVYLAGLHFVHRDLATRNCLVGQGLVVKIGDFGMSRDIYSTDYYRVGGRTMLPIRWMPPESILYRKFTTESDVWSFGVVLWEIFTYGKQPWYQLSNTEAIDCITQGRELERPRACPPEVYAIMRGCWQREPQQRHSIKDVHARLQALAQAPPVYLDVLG
Sequence of BRK (Q13882 whole entry, species assumed): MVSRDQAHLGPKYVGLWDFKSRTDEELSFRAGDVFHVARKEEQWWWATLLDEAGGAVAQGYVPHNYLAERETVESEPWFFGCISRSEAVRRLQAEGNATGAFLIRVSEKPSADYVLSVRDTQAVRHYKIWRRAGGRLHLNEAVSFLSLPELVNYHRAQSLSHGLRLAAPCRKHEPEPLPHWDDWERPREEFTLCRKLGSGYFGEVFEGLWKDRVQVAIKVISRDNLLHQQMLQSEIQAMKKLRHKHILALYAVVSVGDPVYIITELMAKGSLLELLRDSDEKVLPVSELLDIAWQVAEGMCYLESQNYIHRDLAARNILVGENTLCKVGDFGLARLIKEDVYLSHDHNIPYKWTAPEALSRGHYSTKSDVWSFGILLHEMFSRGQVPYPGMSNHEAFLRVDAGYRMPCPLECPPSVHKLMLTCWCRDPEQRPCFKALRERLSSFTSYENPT
Sequence of LCK (P06239 whole entry, species assumed): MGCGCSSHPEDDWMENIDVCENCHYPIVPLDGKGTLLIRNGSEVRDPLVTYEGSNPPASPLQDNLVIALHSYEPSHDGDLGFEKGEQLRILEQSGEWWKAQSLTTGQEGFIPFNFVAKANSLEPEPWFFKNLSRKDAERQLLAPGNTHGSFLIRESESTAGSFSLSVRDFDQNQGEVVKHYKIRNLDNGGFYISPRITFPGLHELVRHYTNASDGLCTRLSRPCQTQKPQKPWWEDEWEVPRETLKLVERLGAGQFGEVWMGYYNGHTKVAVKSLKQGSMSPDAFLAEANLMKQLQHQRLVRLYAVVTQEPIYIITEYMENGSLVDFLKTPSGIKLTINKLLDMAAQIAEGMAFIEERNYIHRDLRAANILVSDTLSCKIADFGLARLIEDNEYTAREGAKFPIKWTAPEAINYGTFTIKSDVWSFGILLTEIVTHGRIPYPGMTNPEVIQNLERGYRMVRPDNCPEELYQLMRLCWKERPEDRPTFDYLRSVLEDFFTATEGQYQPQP
Sequence of PDGFR-a (P16234 24-1089, species assumed): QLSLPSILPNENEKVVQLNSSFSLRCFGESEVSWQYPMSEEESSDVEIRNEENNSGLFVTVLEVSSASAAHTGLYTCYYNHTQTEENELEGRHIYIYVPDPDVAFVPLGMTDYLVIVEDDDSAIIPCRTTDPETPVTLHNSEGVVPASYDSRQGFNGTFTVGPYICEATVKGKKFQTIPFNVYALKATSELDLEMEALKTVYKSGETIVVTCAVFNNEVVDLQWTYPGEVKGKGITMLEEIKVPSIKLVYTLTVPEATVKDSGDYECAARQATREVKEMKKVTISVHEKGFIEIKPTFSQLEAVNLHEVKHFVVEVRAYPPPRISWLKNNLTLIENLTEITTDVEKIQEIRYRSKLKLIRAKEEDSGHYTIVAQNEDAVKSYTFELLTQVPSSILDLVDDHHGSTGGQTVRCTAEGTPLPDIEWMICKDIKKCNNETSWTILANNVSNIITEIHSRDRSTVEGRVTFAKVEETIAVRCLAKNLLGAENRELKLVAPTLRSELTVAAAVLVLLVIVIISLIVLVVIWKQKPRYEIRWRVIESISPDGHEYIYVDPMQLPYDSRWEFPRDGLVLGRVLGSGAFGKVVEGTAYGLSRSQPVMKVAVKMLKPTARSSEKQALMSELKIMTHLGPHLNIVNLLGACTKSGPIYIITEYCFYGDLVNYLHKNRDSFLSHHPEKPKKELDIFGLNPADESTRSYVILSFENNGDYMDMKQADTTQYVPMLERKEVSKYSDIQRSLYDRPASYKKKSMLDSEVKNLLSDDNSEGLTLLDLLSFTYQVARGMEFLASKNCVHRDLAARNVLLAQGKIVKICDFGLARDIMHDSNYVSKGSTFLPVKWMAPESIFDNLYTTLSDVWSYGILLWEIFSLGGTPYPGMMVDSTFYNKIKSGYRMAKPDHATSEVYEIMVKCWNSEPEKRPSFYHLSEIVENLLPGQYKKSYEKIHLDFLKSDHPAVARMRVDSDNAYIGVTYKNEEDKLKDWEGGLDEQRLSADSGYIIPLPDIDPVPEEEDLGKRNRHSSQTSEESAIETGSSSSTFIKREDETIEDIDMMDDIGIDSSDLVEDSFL
Sequence of EPH-A4 (P54764 20-986, species assumed): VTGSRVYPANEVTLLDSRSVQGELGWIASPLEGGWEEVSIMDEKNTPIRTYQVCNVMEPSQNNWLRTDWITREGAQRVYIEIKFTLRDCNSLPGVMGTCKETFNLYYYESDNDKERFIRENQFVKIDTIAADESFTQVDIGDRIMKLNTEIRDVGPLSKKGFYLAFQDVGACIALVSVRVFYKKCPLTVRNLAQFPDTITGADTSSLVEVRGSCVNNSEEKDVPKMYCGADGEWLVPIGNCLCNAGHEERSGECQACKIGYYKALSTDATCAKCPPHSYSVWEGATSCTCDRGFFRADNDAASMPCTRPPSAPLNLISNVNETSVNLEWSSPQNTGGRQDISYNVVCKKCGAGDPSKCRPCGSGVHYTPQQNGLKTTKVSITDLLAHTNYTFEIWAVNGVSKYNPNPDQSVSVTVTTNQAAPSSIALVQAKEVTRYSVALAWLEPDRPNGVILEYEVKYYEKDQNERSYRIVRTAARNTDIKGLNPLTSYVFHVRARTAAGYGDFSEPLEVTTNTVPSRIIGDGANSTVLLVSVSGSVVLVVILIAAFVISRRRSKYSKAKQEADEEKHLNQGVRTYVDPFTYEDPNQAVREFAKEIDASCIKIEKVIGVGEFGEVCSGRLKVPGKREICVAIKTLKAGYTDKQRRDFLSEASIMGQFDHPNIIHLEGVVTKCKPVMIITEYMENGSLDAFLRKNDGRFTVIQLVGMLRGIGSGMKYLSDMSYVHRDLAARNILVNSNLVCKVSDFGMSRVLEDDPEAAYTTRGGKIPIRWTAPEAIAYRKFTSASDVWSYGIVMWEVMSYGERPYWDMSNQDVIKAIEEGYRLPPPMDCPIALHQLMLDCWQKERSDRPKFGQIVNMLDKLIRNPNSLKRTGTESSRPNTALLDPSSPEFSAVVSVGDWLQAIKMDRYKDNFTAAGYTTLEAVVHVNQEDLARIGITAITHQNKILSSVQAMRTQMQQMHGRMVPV
Sequence of EPH-A5 (P54756 25-1037, species assumed): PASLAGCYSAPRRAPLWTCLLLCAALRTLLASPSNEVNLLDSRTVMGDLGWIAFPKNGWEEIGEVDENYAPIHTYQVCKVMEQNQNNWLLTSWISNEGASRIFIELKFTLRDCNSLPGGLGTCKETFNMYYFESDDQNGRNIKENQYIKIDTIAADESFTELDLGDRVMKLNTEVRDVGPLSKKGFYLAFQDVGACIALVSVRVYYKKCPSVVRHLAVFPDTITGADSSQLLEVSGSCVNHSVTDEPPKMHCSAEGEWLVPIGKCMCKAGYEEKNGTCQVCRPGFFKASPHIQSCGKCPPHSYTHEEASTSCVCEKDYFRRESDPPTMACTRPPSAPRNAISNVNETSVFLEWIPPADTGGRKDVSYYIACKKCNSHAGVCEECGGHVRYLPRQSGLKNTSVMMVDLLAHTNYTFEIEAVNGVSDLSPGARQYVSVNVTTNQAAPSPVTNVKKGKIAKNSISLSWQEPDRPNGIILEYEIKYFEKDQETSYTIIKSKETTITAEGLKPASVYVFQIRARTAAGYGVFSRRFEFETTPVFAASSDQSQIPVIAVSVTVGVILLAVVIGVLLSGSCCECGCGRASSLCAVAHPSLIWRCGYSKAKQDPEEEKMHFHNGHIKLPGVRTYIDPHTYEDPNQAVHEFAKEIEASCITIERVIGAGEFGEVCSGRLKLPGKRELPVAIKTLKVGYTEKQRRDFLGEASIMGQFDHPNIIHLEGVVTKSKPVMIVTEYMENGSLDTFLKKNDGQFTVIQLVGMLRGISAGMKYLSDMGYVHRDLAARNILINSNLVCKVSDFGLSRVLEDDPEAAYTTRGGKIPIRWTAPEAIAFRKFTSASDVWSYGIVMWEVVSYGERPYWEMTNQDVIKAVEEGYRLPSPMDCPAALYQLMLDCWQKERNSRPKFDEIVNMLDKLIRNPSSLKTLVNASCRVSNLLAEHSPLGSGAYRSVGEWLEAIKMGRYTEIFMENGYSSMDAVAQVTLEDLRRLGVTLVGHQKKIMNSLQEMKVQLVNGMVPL

| SMILES | inhibition at 5 µM [1] [%] | inhibition at 5 µM [2] [%] | inhibition of kinase activity, EPH-A5 [3] | inhibition at 5 µM [4] [%] | inhibition at 5 µM [5] [%] | inhibition at 5 µM [6] [%] | inhibition at 5 µM [7] [%] | inhibition at 5 µM [8] [%] | inhibition at 5 µM [9] [%] |
| --- | --- | --- | --- | --- | --- | --- | --- | --- | --- |
| CNC(=O)c1cc(Oc2ccc(NC(=O)c3nc(NC)oc3-c3ccc(F)cc3)cc2F)ccn1 [Compound 14] | 80 to 89 | 50 to 79 | D (category D for 50-79) | ≥ 95 | 50 to 79 | 50 to 79 | 50 to 79 | < 50 | 80 to 89 |
| CNC(=O)c1cc(Oc2ccc(NC(=O)c3nc(OC)oc3-c3ccc(F)s3)cc2F)ccn1 [Compound 25] | < 50 | < 50 | E (category E is less than 50%) | ≥ 95 | < 50 | < 50 | < 50 | < 50 | < 50 |
| CSc1nc(C(=O)Nc2ccc(Oc3ccnc(C(=O)NCC(F)(F)F)c3)c(F)c2)c(-c2ccc(F)cc2)o1 [Compound 40] | 50 to 79 | < 50 | E (category E is less than 50%) | ≥ 95 | < 50 | < 50 | < 50 | < 50 | < 50 |
| CNC(=O)c1cc(Oc2ccc(NC(=O)c3nc(SC(C)C)oc3-c3ccc(F)cc3)cc2F)ccn1 [Compound 34] | 90 to 94 | 90 to 94 | C (C=80%-89% at 5 um) | ≥ 95 | 50 to 79 | 80 to 89 | < 50 | < 50 | 80 to 89 |
| CSc1nc(C(=O)Nc2ccc(Oc3cc4cnn(C)c4cc3Br)c(F)c2)c(-c2ccc(F)cc2)o1 [Compound 2] | < 50 | 50 to 79 | D (category D for 50-79) | ≥ 95 | < 50 | < 50 | < 50 | < 50 | < 50 |
| CNC(=O)c1cc(Oc2ccc(NC(=O)c3nc(SC)oc3-c3ccc(F)s3)cc2F)ccn1 [Compound 16] | < 50 | < 50 | E (category E is less than 50%) | ≥ 95 | < 50 | < 50 | < 50 | < 50 | < 50 |
| CNC(=O)c1cc(Oc2ccc(NC(=O)c3nc(S(C)(=O)=O)sc3-c3ccc(F)cc3)cc2F)ccn1 [Compound 13] | 50 to 79 | 50 to 79 | D (category D for 50-79) | ≥ 95 | < 50 | 90 to 94 | 50 to 79 | 50 to 79 | 50 to 79 |
| CNC(=O)c1cc(Oc2ccc(NC(=O)c3nc(NC)sc3-c3ccc(F)cc3C)cc2F)ccn1 [Compound 23] | 50 to 79 | 50 to 79 | D (category D for 50-79) | 90 to 94 | 50 to 79 | 80 to 89 | < 50 | < 50 | 80 to 89 |
